# Measurements published in EP2027081B1, “THERAPEUTIC PROSTAGLANDIN COMPOUNDS FOR THE TREATMENT OF GLAUCOMA” (ALLERGAN, INC., priority 2006, dated 2007).
# How the values were obtained:
# [1] = biological target: T1, hEP2/Gqs5 (Homo sapiens, UniProt P43116); experiment: FLIPR calcium signal study, HEK-293(EBNA) cells; format: cell-based; conditions: Table 1; Ca2+ signal; NA means not active; read-out: FUNCTIONAL (Ca2+, EC50, nM) HEP 2
# T1 construct: expressed in transfected cells; host or cells: HEK-293(EBNA)
# T1 sequence (P43116 whole entry): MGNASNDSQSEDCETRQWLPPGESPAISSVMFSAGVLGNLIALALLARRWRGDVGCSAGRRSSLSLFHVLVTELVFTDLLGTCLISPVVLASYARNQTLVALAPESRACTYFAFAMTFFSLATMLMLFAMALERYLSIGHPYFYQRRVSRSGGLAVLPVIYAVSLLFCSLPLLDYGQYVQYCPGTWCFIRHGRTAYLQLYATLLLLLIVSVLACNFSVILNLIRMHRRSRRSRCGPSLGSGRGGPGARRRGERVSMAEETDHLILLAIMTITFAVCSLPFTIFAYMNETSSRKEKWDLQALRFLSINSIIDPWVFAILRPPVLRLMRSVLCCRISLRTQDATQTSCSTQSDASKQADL
# Experimental: (§1) Cells were seeded at a density of 5x10^4 cells per well in Biocoat® Poly-D-lysine-coated black-wall, clear-bottom 96-well plates (Becton-Dickinson) and allowed to attach overnight in an incubator at 37 °C. Cells were then washed two times with HBSS-HEPES buffer (Hanks Balanced Salt Solution without bicarbonate and phenol red, 20 mM HEPES, pH 7.4) using a Denley Cellwash plate washer (Labsystems). After 45 minutes of dye-loading in the dark, using the calcium-sensitive dye Fluo-4 AM at a final concentration of 2 µM, plates were washed four times with HBSS-HEPES buffer to remove excess dye leaving 100 µl in each well. Plates were re-equilibrated to 37 °C for a few minutes.
# Cells were excited with an Argon laser at 488 nm, and emission was measured through a 510-570 nm bandwidth emission filter (FLIPR™, Molecular Devices, Sunnyvale, CA). […] The peak increase in fluorescence intensity was recorded for each well. […] The peak fluorescence change in each drug-containing well was then expressed relative to the controls.
# (§2) Compounds were tested in a high-throughput (HTS) or concentration-response (CoRe) format. In the HTS format, forty-four compounds per plate were examined in duplicates at a concentration of 10^-5 M. To generate concentration-response curves, four compounds per plate were tested in duplicates in a concentration range between 10^-5 and 10^-11 M. The duplicate values were averaged.
# [2] = biological target: T2, hDP/Gqs5 (Homo sapiens, UniProt Q13258); experiment: FLIPR calcium signal study, HEK-293(EBNA) cells; format: cell-based; conditions: Table 1; NA means not active; read-out: FUNCTIONAL (Ca2+, EC50, nM) HDP
# T2 construct: expressed in transfected cells; host or cells: HEK-293(EBNA)
# T2 sequence (Q13258 whole entry): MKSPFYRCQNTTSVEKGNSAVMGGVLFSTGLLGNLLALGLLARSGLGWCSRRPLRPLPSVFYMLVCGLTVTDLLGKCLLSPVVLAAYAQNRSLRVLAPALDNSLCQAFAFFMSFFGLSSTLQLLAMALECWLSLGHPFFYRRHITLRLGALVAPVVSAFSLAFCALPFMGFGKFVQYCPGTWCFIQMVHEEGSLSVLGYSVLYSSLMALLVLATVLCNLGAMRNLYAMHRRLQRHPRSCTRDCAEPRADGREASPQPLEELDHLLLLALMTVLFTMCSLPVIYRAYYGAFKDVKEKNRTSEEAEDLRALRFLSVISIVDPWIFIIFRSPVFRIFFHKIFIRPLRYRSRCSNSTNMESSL
# Experimental: HEK-293(EBNA) cells, stably expressing one type or subtype of recombinant human prostaglandin receptors (prostaglandin receptors expressed: hDP/Gqs5; hEP1; hEP2/Gqs5; hEP3A/Gqi5; hEP4/Gqs5; hFP; hIP; hTP), were cultured in 100 mm culture dishes in high-glucose DMEM medium containing 10% fetal bovine serum, 2 mM I-glutamine, 250 µg/ml geneticin (G418) and 200 µg/ml hygromycin B as selection markers, and 100 units/ml penicillin G, 100 µg/ml streptomycin and 0.25 µg/ml amphotericin B.
# as §1
# Cells were excited with an Argon laser at 488 nm, and emission was measured through a 510-570 nm bandwidth emission filter (FLIPR™, Molecular Devices, Sunnyvale, CA). Drug solution was added in a 50 µl volume to each well to give the desired final concentration. The peak increase in fluorescence intensity was recorded for each well. On each plate, four wells each served as negative (HBSS-HEPES buffer) and positive controls (standard agonists: BW245C (hDP); PGE2 (hEP1; hEP2/Gqs5; hEP3A/Gqi5; hEP4/Gqs5); PGF2α (hFP); carbacyclin (hIP); U-46619 (hTP), depending on receptor). The peak fluorescence change in each drug-containing well was then expressed relative to the controls.
# as §2, with “averaged. In either, HTS or CoRe format each compound was tested on at least 3 separate plates using cells from different passages to give an n ≥ 3.” for “averaged.”
smiles,measurement,setting,value
CCCC1(C(O)c2ccc([C@H]3CCC(=O)[C@@H]3C/C=C\CCCC(=O)O)cc2)CCC1 (some centres unmarked) [Entry 6],EC50,[1],2870 nM
same,EC50,[2],> 10000 nM
